# Test results published in ChEMBL document CHEMBL1152860, “Synthesis and antiproliferative activity of 3-amino-N-phenyl-1H-indazole-1-carboxamides” (2009).
# Tests used:
# Assay type in all cases: functional
# [1] = test system: HCC 2998; experiment: Growth inhibition of human HCC2998 cells after 48 hrs by SRB assay; settings: HCC 2998, 48 h
# [2] = test system: OVCAR-8; experiment: Growth inhibition of human OVCAR8 cells after 48 hrs by SRB assay; settings: OVCAR-8, 48 h
# [3] = test system: HOP-92; experiment: Growth inhibition of human HOP92 cells after 48 hrs by SRB assay; settings: HOP-92, 48 h
# [4] = test system: KM12; experiment: Growth inhibition of human KM12 cells after 48 hrs by SRB assay; settings: KM12, 48 h
# [5] = test system: A549; experiment: Growth inhibition of human A549 cells after 48 hrs by SRB assay; settings: A549, 48 h
# [6] = test system: HCT-116; experiment: Growth inhibition of human HCT116 cells after 48 hrs by SRB assay; settings: HCT-116, 48 h
# [7] = test system: CAKI-1; experiment: Growth inhibition of human Caki1 cells after 48 hrs by SRB assay; settings: CAKI-1, 48 h
# [8] = test system: UACC-257; experiment: Growth inhibition of human UACC257 cells after 48 hrs by SRB assay; settings: UACC-257, 48 h
# [9] = test system: HOP-62; experiment: Growth inhibition of human HOP62 cells after 48 hrs by SRB assay; settings: HOP-62, 48 h
# [10] = test system: UACC-62; experiment: Growth inhibition of human UACC62 cells after 48 hrs by SRB assay; settings: UACC-62, 48 h
# [11] = Growth inhibition of human Hs 578T cells after 48 hrs by SRB assay
# [12] = test system: NCI/ADR-RES; experiment: Growth inhibition of human NCI/ADR-RES cells after 48 hrs by SRB assay
# [13] = test system: SN12C; experiment: Growth inhibition of human SN12C cells after 48 hrs by SRB assay
# [14] = test system: SK-MEL-5; experiment: Growth inhibition of human SK-MEL-5 cells after 48 hrs by SRB assay; settings: SK-MEL-5, 48 h
# [15] = test system: SF-295; experiment: Growth inhibition of human SF295 cells after 48 hrs by SRB assay; settings: SF-295, 48 h
# [16] = test system: BT-549; experiment: Growth inhibition of human BT549 cells after 48 hrs by SRB assay; settings: BT-549, 48 h
# [17] = test system: M14; experiment: Growth inhibition of human M14 cells after 48 hrs by SRB assay; settings: M14, 48 h
# [18] = test system: K562; experiment: Growth inhibition of human K562 cells after 48 hrs by SRB assay; settings: K562, 48 h
# [19] = test system: NCI-H226; experiment: Growth inhibition of human NCI-H226 cells after 48 hrs by SRB assay; settings: NCI-H226, 48 h
# [20] = test system: MDA-MB-435; experiment: Growth inhibition of human MDA-MB-435 cells after 48 hrs by SRB assay; settings: MDA-MB-435, 48 h
# [21] = test system: HL-60(TB); experiment: Growth inhibition of human HL-60(TB) cells after 48 hrs by SRB assay; settings: HL-60, 48 h
# [22] = test system: NCI-H522; experiment: Growth inhibition of human NCI-H522 cells after 48 hrs by SRB assay; settings: NCI-H522, 48 h
# [23] = test system: ACHN; experiment: Growth inhibition of human ACHN cells after 48 hrs by SRB assay
# [24] = test system: OVCAR-4; experiment: Growth inhibition of human OVCAR4 cells after 48 hrs by SRB assay; settings: OVCAR-4, 48 h
# [25] = test system: A498; experiment: Growth inhibition of human A498 cells after 48 hrs by SRB assay; settings: A498, 48 h
# [26] = test system: OVCAR-5; experiment: Growth inhibition of human OVCAR5 cells after 48 hrs by SRB assay; settings: OVCAR-5, 48 h
# [27] = test system: SK-MEL-28; experiment: Growth inhibition of human SK-MEL-28 cells after 48 hrs by SRB assay; settings: SK-MEL-28, 48 h
# [28] = test system: DU-145; experiment: Growth inhibition of human DU145 cells after 48 hrs by SRB assay; settings: DU-145, 48 h
# [29] = test system: RXF 393; experiment: Growth inhibition of human […] cells after 48 hrs by SRB assay; settings: RXF 393, 48 h
# [30] = test system: NCI-H23; experiment: Growth inhibition of human NCI-H23 cells after 48 hrs by SRB assay; settings: NCI-H23, 48 h
# [31] = test system: NCI-H460; experiment: Growth inhibition of human NCI-H460 cells after 48 hrs by SRB assay; settings: NCI-H460, 48 h
# [32] = test system: SNB-75; experiment: Growth inhibition of human SNB75 cells after 48 hrs by SRB assay; settings: SNB-75, 48 h
# [33] = test system: OVCAR-3; experiment: Growth inhibition of human OVCAR-3 cells after 48 hrs by SRB assay; settings: OVCAR-3, 48 h
# [34] = test system: PC-3; experiment: Growth inhibition of human PC3 cells after 48 hrs by SRB assay; settings: PC-3, 48 h
# [35] = test system: Malme-3M; experiment: Growth inhibition of human MALME-3M cells after 48 hrs by SRB assay
# [36] = test system: SK-OV-3; experiment: Growth inhibition of human SKOV3 cells after 48 hrs by SRB assay; settings: SK-OV-3, 48 h
# [37] = test system: SF-539; experiment: Growth inhibition of human SF539 cells after 48 hrs by SRB assay; settings: SF-539, 48 h
# [38] = test system: LOX IMVI; experiment: Growth inhibition of human LOXIMVI cells after 48 hrs by SRB assay
# [39] = test system: EKVX; experiment: Growth inhibition of human EKVX cells after 48 hrs by SRB assay
# [40] = test system: TK-10; experiment: Growth inhibition of human TK10 cells after 48 hrs by SRB assay; settings: TK-10, 48 h
# [41] = test system: UO-31; experiment: Growth inhibition of human UO31 cells after 48 hrs by SRB assay; settings: UO-31, 48 h
# [42] = test system: U-251; experiment: Growth inhibition of human U251 cells after 48 hrs by SRB assay; settings: U-251, 48 h
# [43] = test system: SF-268; experiment: Growth inhibition of human SF268 cells after 48 hrs by SRB assay; settings: SF-268, 48 h
# [44] = test system: HCT-15; experiment: Growth inhibition of human HCT15 cells after 48 hrs by SRB assay; settings: HCT-15, 48 h
# [45] = test system: 786-0; experiment: Growth inhibition of human 786-0 cells after 48 hrs by SRB assay; settings: 786-0, 48 h
# [46] = test system: MDA-MB-231; experiment: Growth inhibition of human MDA-MB-231 cells after 48 hrs by SRB assay; settings: MDA-MB-231, 48 h
structure (smiles),measurement,setting,value
CCCCOc1ccc(NC(=O)n2nc(N)c3ccccc32)cc1,GI50,[1],19 µM
same,GI50,[2],35.9 µM
same,GI50,[3],18.6 µM
same,GI50,[4],11.3 µM
same,GI50,[5],23.5 µM
same,GI50,[6],19.9 µM
same,GI50,[7],28.3 µM
same,GI50,[8],29.2 µM
same,GI50,[9],20.8 µM
same,GI50,[10],14.7 µM
same,GI50,[11],20.2 µM
same,GI50,[12],23.7 µM
same,GI50,[13],23.1 µM
same,GI50,[14],15.2 µM
same,GI50,[15],21.7 µM
same,GI50,[16],14 µM
same,GI50,[17],18.6 µM
same,GI50,[18],15.9 µM
same,GI50,[19],21.2 µM
same,GI50,[20],19.1 µM
same,GI50,[21],2.23 µM
same,TGI,[21],30.4 µM
same,CC50,[21]; read-out: LC50 (the source's name),> 100 µM
same,GI50,[22],27.4 µM
same,GI50,[23],22.8 µM
same,GI50,[24],30.7 µM
same,GI50,[25],19 µM
same,GI50,[26],20 µM
same,GI50,[27],32.6 µM
same,GI50,[28],25 µM
same,GI50,[29],29.6 µM
same,GI50,[30],19.4 µM
same,GI50,[31],15.7 µM
same,GI50,[32],28.6 µM
same,GI50,[33],18.8 µM
same,GI50,[34],14.9 µM
same,GI50,[35],14.7 µM
same,GI50,[36],44 µM
same,GI50,[37],17.8 µM
same,GI50,[38],12.2 µM
same,GI50,[39],13.3 µM
same,GI50,[40],24.2 µM
same,GI50,[41],17.5 µM
same,GI50,[42],30.5 µM
same,GI50,[43],25.8 µM
same,GI50,[44],15.5 µM
same,GI50,[45],21 µM
same,GI50,[46],13.8 µM
